The data set in a line: in vitro. The conditions noted are these: human, hela cells, % viability.
As a reminder, the viability is a read-out of living cells in per cent, often relative to untreated cells. As to `CN(C)S(=O)(=O)c1ccc(Cl)c(C(=O)Nc2cccc(C(=O)O)c2)c1` [CBK265727], the viability at 28.5 h, 10 µM worked out at 90.9%.

For `CN(c1ccc(C(=O)Nc2cccc(C(=O)O)c2)cc1)S(=O)(=O)c1ccccc1` [CBK265729], the viability at 28.5 h, 10 µM is 95.7%.

Regarding `CCOc1cc(CNC2C3CC4CC(C3)CC2C4)cc(Cl)c1OCC(N)=O` (centres unmarked) [CBK265734C], the viability at 28.5 h, 10 µM amounted to 103%.

As to `Cc1cccc(NC(=O)CSc2ncnc3sc4c(c23)CCC(C)C4)c1` (centres unmarked) [CBK265738], the viability at 28.5 h, 10 µM is 102%.

For `O=C(O)c1cccc(NC(=S)NC(=O)c2cccnc2)c1` [CBK265739], the viability at 28.5 h, 10 µM stood at 94.5%.

In the case of `CCCCc1ccc(NC(=S)NN2CCN(C)CC2)cc1` [CBK265741], the viability at 28.5 h, 10 µM is 97.1%.

In the case of `COC(=O)c1c(NC(=O)C(Cc2ccccc2)N2C(=O)c3ccccc3C2=O)sc2c1CCC2` (centres unmarked) [CBK265744], the viability at 28.5 h, 10 µM amounted to 96.1%.

Turning to `CN1CCN(C(=O)CN(Cc2ccccc2)S(C)(=O)=O)CC1` [CBK265745], the viability at 28.5 h, 10 µM worked out at 97.6%.

Consider `CCN(CC)CCCNc1oc(-c2ccc(Cl)cc2)nc1C#N` [CBK265746], for which the viability at 28.5 h, 10 µM came to 126%.

For the molecule `O=C(O)CCCn1c(=O)c2cc3c(=O)n(CCCC(=O)O)c(=O)c3cc2c1=O` [CBK265748], the viability at 28.5 h, 10 µM stood at 93.1%.

On to `O=C(COc1ccc2ccccc2c1)Nc1ccc(CN2CCOCC2)cc1` [CBK265754], for which the viability at 28.5 h, 10 µM was determined as 121%.

On to `Cc1nn(Cc2cccc(C(=O)NCc3ccccn3)c2)c(C)c1Cl` [CBK265755], for which the viability at 28.5 h, 10 µM stood at 97.7%.

In the case of `Cc1c(CN(C)C(=O)c2ccc(COc3ccc(Cl)cc3)cc2)cnn1C` [CBK265756], the viability at 28.5 h, 10 µM was determined as 98.9%.

Take `Cc1ccccc1CN(CC(=O)NC1CC1)S(=O)(=O)c1ccc(Cl)cc1` [CBK265757]: the viability at 28.5 h, 10 µM amounted to 98.3%.

`C/C(=C(/C(=O)N(N)c1nc2ccccc2s1)C(=O)C(F)(F)F)N1CCC(C(N)=O)CC1` [CBK265758]: the viability at 28.5 h, 10 µM is 87.7%.

`Cc1ccc(N(Cc2ccccc2OC(=O)c2cccnc2)C2=NS(=O)(=O)c3ccccc32)cc1` [CBK265760]: the viability at 28.5 h, 10 µM was determined as 88.4%.

As to `O=c1c2ccccc2c(-c2ccc(Cl)cc2)nn1-c1cc(N2CCNCC2)ccc1[N+](=O)[O-]` [CBK265763], the viability at 28.5 h, 10 µM was found to be 98.7%.

For the molecule `O=C(Nc1ccc(S(=O)(=O)Nc2ccc(Cl)cc2)cc1)c1ccc(Cn2cc(Br)cn2)o1` [CBK265764], the viability at 28.5 h, 10 µM was found to be 108%.

For the molecule `CN1CCN(C(=O)CNS(=O)(=O)c2ccccc2)CC1` [CBK265767], the viability at 28.5 h, 10 µM is 92.6%.

Consider `COc1ccc(-c2nc(C#N)c(NCCN3CCOCC3)o2)cc1` [CBK265769], for which the viability at 28.5 h, 10 µM amounted to 108%.

`O=C(O)CCC(=O)Nc1ccccc1NC(=O)c1ccc(C(F)(F)F)cc1` [CBK265770]: the viability at 28.5 h, 10 µM stood at 102%.

As for `CN1CCN(CC(=O)Nc2ccc([N+](=O)[O-])cc2C(=O)c2ccccc2)CC1` [CBK265772], the viability at 28.5 h, 10 µM was 104%.

On to `NC(=O)C1(N2CCCCC2)CCN(CC(=O)Nc2ccc(Oc3ccccc3)cc2)CC1` [CBK265774], for which the viability at 28.5 h, 10 µM was 107%.

Regarding `NC(=O)c1c(NC(=O)c2ccc(COc3cc(Cl)ccc3Cl)o2)sc2c1CCCC2` [CBK265775], the viability at 28.5 h, 10 µM stood at 85.4%.

As for `CCOc1cc(C2CC(=O)NC(SCC(=O)Nc3cccc(C(F)(F)F)c3)=C2C#N)ccc1O` (centres unmarked) [CBK265778], the viability at 28.5 h, 10 µM came out at 104%.

Regarding `Cn1nc(-c2ccc(N3CCCCC3)c(NC(=O)COc3ccccc3)c2)c2ccccc2c1=O` [CBK265780], the viability at 28.5 h, 10 µM was found to be 97.3%.

`CCn1c(SCC(=O)N2CCN(c3ccccc3)CC2)nnc1-c1ccc(N)cc1` [CBK265786]: the viability at 28.5 h, 10 µM stood at 103%.

Turning to `O=C1CNC(=O)N1CC(O)Cn1c2ccc(Cl)cc2c2cc(Cl)ccc21` (centres unmarked) [CBK265792], the viability at 28.5 h, 10 µM stood at 90.1%.

In the case of `N#CC1=C(SCC(=O)Nc2cccc3ccccc23)NC(=O)CC1c1ccco1` (centres unmarked) [CBK265793], the viability at 28.5 h, 10 µM was 101%.

On to `CC(Sc1nc(-c2ccccc2)nc2ccccc12)C(=O)Nc1ccccc1C(F)(F)F` (centres unmarked) [CBK265795], for which the viability at 28.5 h, 10 µM came out at 103%.

`O=S1(=O)CC(NCc2ccccc2)C(Nc2ccccc2)C1` (centres unmarked) [CBK265797]: the viability at 28.5 h, 10 µM turned out to be 91.7%.

As to `CCOc1nc2c(c(C(F)(F)F)n1)CC(C)C/C2=C\c1ccccc1` (centres unmarked) [CBK265800], the viability at 28.5 h, 10 µM amounted to 94.8%.

As to `NS(=O)(=O)c1ccc(CNC(=S)NC2CCCC2)cc1` [CBK265802], the viability at 28.5 h, 10 µM was 97.8%.

Consider `COc1ccc(CCNc2ncnc3c2cnn3-c2ccc(Cl)cc2)cc1OC` [CBK265804], for which the viability at 28.5 h, 10 µM is 105%.

Consider `CS(=O)(=O)N(CC(=O)O)Cc1ccccc1` [CBK265805], for which the viability at 28.5 h, 10 µM was found to be 90.1%.

For `CC(C)(C)NC(=O)CNS(=O)(=O)c1ccccc1` [CBK265807], the viability at 28.5 h, 10 µM was found to be 85.5%.

For `CCn1cc(C(=O)O)c(=O)c2cc(F)c(N3CCN(C(=S)Nc4cccc5ccccc45)CC3)cc21` [CBK265809], the viability at 28.5 h, 10 µM is 97.4%.

Turning to `O=C(O)c1cccc(-n2c(S)nnc2-c2ccc3ccccc3n2)c1` [CBK265810], the viability at 28.5 h, 10 µM worked out at 103%.

Regarding `Cc1nn(Cc2cccc(C(=O)Nc3ccc(S(=O)(=O)N4CCCCC4)cc3)c2)c(C)c1Cl` [CBK265815], the viability at 28.5 h, 10 µM was found to be 81.9%.

For the molecule `Cc1ccccc1OCc1nnc(SCC(=O)NC2CCCCC2)n1C` [CBK265817], the viability at 28.5 h, 10 µM turned out to be 82.5%.

`Sc1nnc(-c2ccncc2)n1CCc1ccccc1` [CBK265819]: the viability at 28.5 h, 10 µM was 108%.

Consider `COc1ccc([N+](=O)[O-])cc1CSc1nnc(COc2ccccc2C)n1C` [CBK265820], for which the viability at 28.5 h, 10 µM stood at 93%.

Regarding `CC(Sc1nnc2[nH]c3ccccc3n12)C(=O)O` (centres unmarked) [CBK265822], the viability at 28.5 h, 10 µM amounted to 99.7%.

Turning to `CCn1cc(C(=O)O)c(=O)c2cc(F)c(N3CCN(C(=S)Nc4cc(OC)ccc4OC)CC3)cc21` [CBK265831], the viability at 28.5 h, 10 µM is 85.7%.

Regarding `Cc1ccc(S(=O)(=O)NC2c3cccc4cccc(c34)C2Sc2nnc(N)s2)cc1` (centres unmarked) [CBK265835], the viability at 28.5 h, 10 µM is 107%.

For the molecule `O=C(CSc1ccccc1)Nc1cc(Cl)ccc1O` [CBK265837], the viability at 28.5 h, 10 µM amounted to 109%.

In the case of `O=C1CCCN1CCCNc1ncnc2c1cnn2-c1ccc(Cl)cc1` [CBK265838], the viability at 28.5 h, 10 µM was found to be 97.1%.

With `CCN(Cc1ccccc1)Cc1c(O)ccc2c(=O)c(-c3ccccc3OC)c(C(F)(F)F)oc12` [CBK265839], the viability at 28.5 h, 10 µM is 90%.

On to `Cc1ccc(S(=O)(=O)NC2c3cccc4cccc(c34)C2Sc2ccccn2)cc1` (centres unmarked) [CBK265840], for which the viability at 28.5 h, 10 µM amounted to 91.6%.

Regarding `Cc1cc(C)c(S(=O)(=O)NCCN2CCN(S(=O)(=O)c3c(C)cc(C)cc3C)CC2)c(C)c1` [CBK265842], the viability at 28.5 h, 10 µM amounted to 96%.

With `NC(=O)c1cc(-c2ccccc2)sc1NC(=O)C(Cc1ccccc1)N1C(=O)c2ccccc2C1=O` (centres unmarked) [CBK265843], the viability at 28.5 h, 10 µM is 104%.

For the molecule `c1ccc(-c2noc(CN3CCN(C(c4ccccc4)c4ccccc4)CC3)n2)cc1` [CBK265844], the viability at 28.5 h, 10 µM is 101%.

As to `CS(=O)(=O)NC1c2cccc3cccc(c23)C1N1CCOCC1` (centres unmarked) [CBK265845], the viability at 28.5 h, 10 µM turned out to be 102%.

Consider `Cc1ccccc1OCc1nnc(SCc2c(Cl)cccc2[N+](=O)[O-])n1C` [CBK265846], for which the viability at 28.5 h, 10 µM was 92.4%.

With `O=C(Nc1ccc(S(=O)(=O)N2CCCC2)cc1)c1ccc(COc2ccc3c(c2)CCC3)o1` [CBK265847], the viability at 28.5 h, 10 µM was 89.1%.

`COc1ccc(-n2ncc3c(N4CCN(C)CC4)ncnc32)cc1` [CBK265848]: the viability at 28.5 h, 10 µM came to 89%.

Take `Cc1ccccc1OCc1nnc(SCC(=O)N2CCOCC2)n1C` [CBK265850]: the viability at 28.5 h, 10 µM stood at 96.1%.

With `CN(C)C1c2cccc3cccc(c23)C1NS(C)(=O)=O` (centres unmarked) [CBK265851], the viability at 28.5 h, 10 µM worked out at 110%.

For the molecule `NS(=O)(=O)c1ccc(CCNC2=CC(=O)CC(c3ccco3)C2)cc1` (centres unmarked) [CBK265852], the viability at 28.5 h, 10 µM came out at 97%.

For `Cc1ccnc(NS(=O)(=O)c2ccc(NC(=O)CSc3ccc(Cl)cc3)cc2)n1` [CBK265854], the viability at 28.5 h, 10 µM was determined as 98.9%.

Take `Cc1nn(Cc2ccc(C(=O)Nc3c(C)nn(Cc4ccc(Cl)c(Cl)c4)c3C)o2)c(C)c1Br` [CBK265855]: the viability at 28.5 h, 10 µM is 83.5%.

For the molecule `Cc1ccc(N(Cc2ccco2)C(=O)c2cccc(S(=O)(=O)N3CCOCC3)c2)cc1` [CBK265857], the viability at 28.5 h, 10 µM is 96.4%.

With `N#CCCSCc1ccc(C(=O)O)o1` [CBK265858], the viability at 28.5 h, 10 µM was 115%.

Regarding `CCn1c(SCC(=O)Nc2ccccc2OC)nnc1-c1ccc(N)cc1` [CBK265859], the viability at 28.5 h, 10 µM came out at 111%.

As for `CCOc1ccccc1NC(=O)CNS(=O)(=O)c1ccccc1` [CBK265860], the viability at 28.5 h, 10 µM came out at 86.9%.

For the molecule `NC(=O)C1(N2CCCCC2)CCN(C(=S)Nc2ccc(Oc3ccccc3)cc2)CC1` [CBK265862], the viability at 28.5 h, 10 µM was found to be 84.7%.

Take `COc1ccc(NC(=O)CCN2C(=O)c3ccccc3S2(=O)=O)cc1` [CBK265863]: the viability at 28.5 h, 10 µM stood at 87.1%.

For `O=C(O)CCC(=O)NCC1OCCc2ccccc21` (centres unmarked) [CBK265865], the viability at 28.5 h, 10 µM was found to be 89%.

For the molecule `O=C(c1ccccc1Cl)N1CCN(c2ccc([N+](=O)[O-])c(NCc3cccnc3)c2)CC1` [CBK265866], the viability at 28.5 h, 10 µM turned out to be 108%.

Consider `O=C(Cc1ccc(Cl)cc1)Nc1ccc(Oc2ccc3c(c2)C(=O)NC3=O)cc1` [CBK265869], for which the viability at 28.5 h, 10 µM came to 87.8%.

`Cc1ccc(S(=O)(=O)NC2c3cccc4cccc(c34)C2Sc2nncn2N)cc1` (centres unmarked) [CBK265873]: the viability at 28.5 h, 10 µM worked out at 112%.

Regarding `COc1cc(CNn2cnnc2S)ccc1OCC(N)=O` [CBK265877], the viability at 28.5 h, 10 µM was 90%.

Consider `COc1ccc(-n2ncc3c(N4CCN(Cc5ccccc5)CC4)ncnc32)cc1` [CBK265879], for which the viability at 28.5 h, 10 µM amounted to 88.8%.

As for `COc1ccc(-c2cc(-c3nnc(S)n3-c3ccccc3Cl)[nH]n2)cc1` [CBK265880], the viability at 28.5 h, 10 µM is 100%.

For the molecule `NCCNc1ccc([N+](=O)[O-])c(Sc2nc3ccccc3[nH]2)c1` [CBK265882], the viability at 28.5 h, 10 µM turned out to be 106%.

For `COc1cc(NC(=S)NCCN2CCOCC2)c(OC)cc1Cl` [CBK265888], the viability at 28.5 h, 10 µM stood at 101%.

As to `CCn1cc(Br)c(C(=O)Nc2nccs2)n1` [CBK265890], the viability at 28.5 h, 10 µM turned out to be 96.8%.
